Reference: patent US20260083701A1, “COMPOSITIONS, FORMULATIONS, AND METHODS FOR TREATMENT OF INFLAMMATORY CONDITIONS” (Oddity Labs, LLC, priority 2023, published 2026)

Assays:
IL-13 = assay: Functional Th2-blocking activity: IL-13 expression in primary human Th2 cells (intracellular flow cytometry); type: cell-based; details: for Expression of Cytokine following Stimulation (% X Positive among CD4+ T cells) IL-13: 3 days co-culture with compound, PMA/ionomycin stimulation 6 hours; for % Normalized Reduction of Cytokine Expression From Baseline in CD4+ T Cells IL-13: normalized against vehicle control (water), 3 days co-culture, PMA/ionomycin 6 hours
Source text: (§1) To produce T helper 2 (Th2) cells, peripheral blood mononuclear cells (PBMCs) were harvested from healthy donor leukopaks using Ficoll gradients. Naive CD4+ T cells were further isolated, then activated using TransAct or Dynabeads (depending on the donor). CD4+ T cells were activated for two days in the presence of low dose IL-2 (30 IU/mL) in X-VIVO-15 media containing 5% human AB serum (activation cycle). On the second day, the media was exchanged and supplemented with interleukin 4 (IL-4) (20 ng/mL), anti-IFN-gamma antibody (1 μg/mL), and interleukin 2 (IL-2) (rest cycle). The cells were cultured for an additional five days then evaluated for Prostaglandin D2 receptor 2 (DP2 or CRTH2) expression and IL-4 and interleukin 13 (IL-13) expression following phorbol myristate acetate (PMA)/ionomycin stimulation. If the expression of CRTH2 was >50%, the cells were frozen and used in Th2 IL-4/IL-13 bioactivity assays. If the expression of CRTH2 <50%, then the cells were restimulated using TransAct (or Dynabeads) and maintained on similar cycles of activation (2 days) and rest (5 days), until the expression of CRTH2 exceeded 50%. Typically, no more than 4 cycles are needed before the Th2 cells may be harvested and frozen.
(§2) For testing the ability of a compound or salt of the present disclosure to reduce the expression of IL-4 and IL-13 was tested in primary human Th2 cells, the abovementioned cells were thawed, then cultured for one day in IL-2 containing media. The Th2 cells were treated with compounds added at varying concentrations for three days, after which, the cells were washed, and stimulated with PMA/ionomycin for 6 hrs prior to readabout via intracellular flow cytometry.
(§3) The ability of a compound or salt of the present disclosure to reduce the expression of IL-4 and IL-13 was tested in primary human Th2 cells. Naive, primary human CD4+ T cells were isolated from healthy donors and differentiated into Th2 cells using a combination of IL-4 cytokine and anti-IFN-gamma antibody, based on a modified protocol from Scott et al (Activation of Th2 cells downregulates CRTh2 through an NFAT1 mediated mechanism. PLoS One. 2018 Jul. 3; 13(7):e0199156). Th2 cells were CRTH2+ and expressed IL-4 and IL-13 following PMA/ionomycin stimulation. Prior to PMA/ionomycin stimulation, Th2 cells were co-cultured with a compound or salt of the present disclosure for 3 days and then stimulated for 6 hours. Intracellular flow cytometry was performed to investigate the expression of IL-4 and IL-13 among stimulated CD4+ Th2 cells. The compound or salt was evaluated across a 2-log concentration range. Th2 cells were cultured in X-VIVO-15 media with human AB serum and supplemented with low dose IL-2 (30 IU/mL). The antibody panel that was used is listed below. All antibodies were obtained from Biolegend.
(§4) Description of Calculation for: (1) Expression of Cytokine following Stimulation (% X Positive among CD4+ T cells), and (2) % Normalized Reduction of Cytokine Expression From Baseline in CD4+ T Cells
(§5) The expression of IL-4 and IL-13 was measured based on positive gated fractions among CD4+ Th2 cells. The number is expressed as a positive percentage, determined based on the fluorescence-minus-one (FMO) control. The max percent is 100%. The normalized reduction value uses the vehicle control (water) to normalize against using the following percent change formula. (Cmpd: compound)

IL-4 = assay: Functional Th2-blocking activity: IL-4 expression in primary human Th2 cells (intracellular flow cytometry); type: cell-based; details: primary human CD4+ Th2 cells; for % Normalized Reduction of Cytokine Expression From Baseline in CD4+ T Cells IL-4: normalized against vehicle control (water), 3 days co-culture, PMA/ionomycin 6 hours; for Expression of Cytokine following Stimulation (% X Positive among CD4+ T cells) IL-4: 3 days co-culture with compound, PMA/ionomycin stimulation 6 hours
Source text: as §1, §2, §3, §4, §5

SMILES | Expression of Cytokine following Stimulation (% X Positive among CD4+ T cells) IL-13 (IL-13) | % Normalized Reduction of Cytokine Expression From Baseline in CD4+ T Cells IL-13 (IL-13) | % Normalized Reduction of Cytokine Expression From Baseline in CD4+ T Cells IL-4 (IL-4) | Expression of Cytokine following Stimulation (% X Positive among CD4+ T cells) IL-4 (IL-4)
O=C(c1ccc(F)cc1F)C1(O)CCN(Cc2ccc3cnccc3c2)CC1 [VI-9, 4-(2,4-difluorobenzoyl)-1-[(isoquinolin-6-yl)methyl]piperidin-4-ol] | C (C represents 14% to less than 18%) | C (C represents 40% to less than 50%) | D (D represents 25% or greater) | A (A represents 0% to less than 30%)
O=C(Oc1ccc(OC(=O)c2ccc3c(c2)C(=O)OC3=O)cc1)c1ccc2c(c1)C(=O)OC2=O [VI-13, 4-(1,3-dioxo-1,3-dihydro-2-benzofuran-5-carbonyloxy)phenyl 1,3-dioxo-1,3-dihydro-2-benzofuran-5-carboxylate] | C (C represents 14% to less than 18%) | B (B represents 30% to less than 40%) | C (C represents 20% to less than 25%) | B (B represents 30% to less than 35%)
O=C(Nc1cccc(-c2ccc3nnc(-c4ccncc4)n3n2)c1)c1ccc(Cl)nc1 [III-2, 6-chloro-N-{3-[3-(pyridin-4-yl)-[1,2,4]triazolo[4,3-b]pyridazin-6-yl]phenyl}pyridine-3-carboxamide] | C (C represents 14% to less than 18%) | C (C represents 40% to less than 50%) | C (C represents 20% to less than 25%) | B (B represents 30% to less than 35%)
Cc1ccc(C)n1-c1ccsc1C(=O)N1CCOC(c2ccccc2)C1 (centres unmarked) [VI-8, 4-[3-(2,5-dimethyl-1H-pyrrol-1-yl)thiophene-2-carbonyl]-2-phenylmorpholine] | C (C represents 14% to less than 18%) | C (C represents 40% to less than 50%) | A (A represents 0% to less than 15%) | C (C represents 35% to less than 40%)
O=C(N/N=C/c1cccc(OCc2ccccc2)c1)c1cc2ccccc2cc1O [VI-11, N′-[3-(benzyloxy)benzylidene]-3-hydroxy-2-naphthohydrazide] | D (D represents 18% or greater) | A (A represents 0% to less than 30%) | A (A represents 0% to less than 15%) | D (D represents 40% or greater)
CC1=NN(c2cccc(Cl)c2)C(=O)/C1=C\Nc1cccc2c1C(=O)c1ccccc1C2=O [VI-7, 1-({[1-(3-chlorophenyl)-3-methyl-5-oxo-1,5-dihydro-4H-pyrazol-4-ylidene]methyl}amino)anthra-9,10-quinone] | C (C represents 14% to less than 18%) | B (B represents 30% to less than 40%) | D (D represents 25% or greater) | B (B represents 30% to less than 35%)
Cc1nnc(-c2cccc(-c3noc(-c4c[nH]c(=O)c5ccccc45)n3)c2)[nH]1 [IV-2, 4-{3-[3-(5-methyl-4H-1,2,4-triazol-3-yl)phenyl]-1,2,4-oxadiazol-5-yl}-1,2-dihydroisoquinolin-1-one] | B (B represents 10% to less than 14%) | D (D represents 50% or greater) | D (D represents 25% or greater) | B (B represents 30% to less than 35%)
Cc1cc(NC(=O)CC23CC4CC(CC(C4)C2)C3)cc(-c2nc3ncccc3o2)c1O [III-4, 2-(1-adamantyl)-N-(4-hydroxy-3-methy1-5-[1,3]oxazolo[4,5-b]pyridin-2-ylphenyl)acetamide] | C (C represents 14% to less than 18%) | B (B represents 30% to less than 40%) | C (C represents 20% to less than 25%) | B (B represents 30% to less than 35%)
COC(=O)c1sccc1-n1c(C)ccc1C [VI-3, methyl 3-(2,5-dimethyl-1H-pyrrol-1-yl)thiophene-2-carboxylate] | C (C represents 14% to less than 18%) | C (C represents 40% to less than 50%) | B (B represents 15% to less than 20%) | B (B represents 30% to less than 35%)
Cn1nc(C(=O)NC(CCC(=O)O)C(=O)O)c2ccccc2c1=O (centres unmarked) [VI-6, 2-[(3-methyl-4-oxo-3,4-dihydrophthalazin-1-yl)formamido]pentanedioic acid] | C (C represents 14% to less than 18%) | B (B represents 30% to less than 40%) | A (A represents 0% to less than 15%) | C (C represents 35% to less than 40%)
CCNC(=O)COc1cccc(NC(=O)c2sccc2-n2c(C)ccc2C)c1 [III-3, 3-(2,5-dimethyl-1H-pyrrol-1-yl)-N-{3-[(ethylcarbamoyl)methoxy]phenyl} thiophene-2-carboxamide] | B (B represents 10% to less than 14%) | D (D represents 50% or greater) | B (B represents 15% to less than 20%) | B (B represents 30% to less than 35%)
CN1c2c(nc(N)[nH]c2=O)NCC1CNc1ccc(C(=O)NC(CCC(=O)O)C(=O)O)cc1.[Ca+2] (centres unmarked) [VI-4, Levomefolate calcium, reference compound] | C (C represents 14% to less than 18%) | B (B represents 30% to less than 40%) | B (B represents 15% to less than 20%) | B (B represents 30% to less than 35%)
O=C(Cc1c[nH]c2ccccc12)Nc1cccc(-c2ccc3nnc(-c4cccnc4)n3n2)c1 [III-5, 2-(1H-indol-3-yl)-N-{3-[3-(pyridin-3-yl)-[1,2,4]triazolo[4,3-b]pyridazin-6-yl]phenyl}acetamide] | B (B represents 10% to less than 14%) | D (D represents 50% or greater) | A (A represents 0% to less than 15%) | C (C represents 35% to less than 40%)
O=C(Nc1cccc(NC(=O)c2ccc3[nH]c4c(c3c2)CCCC4)c1)c1ccccc1 [III-7, N-(3-benzamidophenyl)-2,3,4,9-tetrahydro-1H-carbazole-6-carboxamide] | B (B represents 10% to less than 14%) | D (D represents 50% or greater) | D (D represents 25% or greater) | A (A represents 0% to less than 30%)
